US8685992B2, “Histone deacetylase inhibitors based simultaneously on trisubstituted 1H-pyrroles and aromatic and heteroaromatic spacers” (Universidad del País Vasco, priority 2009, dated 2014)

What was measured:
[1] = target: Human HDAC3/NcoR2 (Homo sapiens (Human), UniProt O15379); test: HDAC3 fluorogenic peptide deacetylation assay; assay type: biochemical; details: human HDAC3/NcoR2, 50 μM substrate, 30° C., 2 h; read-out: IC50 (nM) of enzyme activity HDAC3
[2] = target: Human HDAC4 (Homo sapiens (Human), UniProt P56524); test: HDAC4 fluorogenic peptide deacetylation assay; assay type: biochemical; details: human HDAC4, 50 μM substrate, 30° C., 2 h; read-out: IC50 (nM) of enzyme activity HDAC4
[3] = target: Human HDAC5 (Homo sapiens (Human), UniProt Q9UQL6); test: HDAC5 fluorogenic peptide deacetylation assay; assay type: biochemical; details: human HDAC5, 50 μM substrate, 30° C., 2 h; read-out: IC50 (nM) of enzyme activity HDAC5
[4] = target: Human HDAC8 (Homo sapiens (Human), UniProt Q9BY41); test: HDAC8 fluorogenic peptide deacetylation assay; assay type: biochemical; details: human HDAC8, 50 μM substrate, 30° C., 2 h; read-out: IC50 (nM) of enzyme activity HDAC8
[5] = target: Human HDAC9 (Homo sapiens (Human), UniProt Q9UKV0); test: HDAC9 fluorogenic peptide deacetylation assay; assay type: biochemical; details: human HDAC9, 50 μM substrate, 30° C., 2 h; read-out: IC50 (nM) of enzyme activity HDAC9
[6] = target: Human HDAC11 (Homo sapiens (Human), UniProt Q96DB2); test: HDAC11 fluorogenic peptide deacetylation assay; assay type: biochemical; details: human HDAC11, 50 μM substrate, 30° C., 2 h; read-out: IC50 (nM) of enzyme activity HDAC11
[7] = test system: Nuclear Extract from HeLa Cells; test: HeLa Nuclear Extract HDAC assay; assay type: biochemical, human; details: 50 μM substrate, 30° C., 2 h, read-out: IC50 (nM) of enzyme activity HeLa
[8] = test system: BT474; test: Cancer cell growth inhibition, BT474; assay type: cell-based; details: Homo sapiens, BT-474; BT474, Breast Cancer, 72 h treatment
Experimental: (§1) Cell culture-based assays were used to evaluate the ability of compounds of the invention to inhibit cancer cell growth inhibition.
(§2) Cells were obtained from the American Type Culture Collection (ATCC). Cells were cultured at 37° C. with 5% CO2 in the appropriate growth medium (see table below), and harvested respectively during the logarithmic growth period and counted with hemocytometer. The cell viability was over 98% by trypan blue exclusion. Cell concentrations were adjusted between 5×10^4 and 2×10^5 cells/ml with respective medium.
(§3) Stock solutions of test compounds and positive drugs Doxorubicin (Zhejiang, Haizheng, China), Paclitaxel (Beijing, Xiehe, China), Vincristin (Shenzhen Wanle, China), 5-FU (Tianjin jinyaoanjisuan, China), Irinotecan (Jiangsu Hengrui, China) and Cisplatin Nanjing zhiyao, China) were prepared in dimethyl sulphoxide (DMSO) or PBS at 20 mM.
(§4) All treatments were performed in triplicate. 10 μl drug solution was added to each well and incubated for 72 hours. At the end of the incubation, 20 μl of the freshly prepared MTS/PMS mixture solution was added to each well and incubated for 4 hours at 37° C. in a humidified, 5% CO2 atmosphere. Absorbance was read at 490 nm using SpectraMAX Plus microplate spectrophotometer. […] In order to calculate IC50, a dose-responsive curve was fitted using nonlinear regression model with a sigmoidal dose response.

[9] = test system: MCF-7; test: Cancer cell growth inhibition, MCF-7; assay type: cell-based, human; details: Homo sapiens, MCF7; MCF-7, Breast Cancer, 72 h treatment
Experimental: as §1, §2, §3, §4

[10] = test system: MDA-MB-231; test: Cancer cell growth inhibition, MDA-MB-231; assay type: cell-based, human; details: Homo sapiens; MDA-MB-231, Breast Cancer, 72 h treatment
Experimental: as §1, §2, §3, §4

[11] = test system: PC-3; test: Cancer cell growth inhibition, PC-3; assay type: cell-based, human; details: Homo sapiens; PC-3, Prostate Cancer, 72 h treatment
Experimental: as §1, §2, §3, §4

[12] = test system: HCT-116; test: Cancer cell growth inhibition, HCT-116; assay type: cell-based, human; details: Homo sapiens; HCT-116, Colorectal Cancer, 72 h treatment
Experimental: as §1, §2, §3, §4

[13] = test system: HT-29; test: Cancer cell growth inhibition, HT-29; assay type: cell-based, human; details: Homo sapiens; HT-29, Colorectal Cancer, 72 h treatment
Experimental: as §1, §2, §3, §4

[14] = test system: SW620; test: Cancer cell growth inhibition, SW620; assay type: cell-based, human; details: Homo sapiens, SW-620; SW620, Colorectal Cancer, 72 h treatment
Experimental: as §1, §2, §3, §4

[15] = test system: A549; test: Cancer cell growth inhibition, A549; assay type: cell-based, human; details: Homo sapiens; A549, Lung Cancer, 72 h treatment
Experimental: as §1, §2, §3, §4

[16] = test system: Calu-6; test: Cancer cell growth inhibition, Calu-6; assay type: cell-based, human; details: Homo sapiens; Calu-6, Lung Cancer, 72 h treatment
Experimental: as §1, §2, §3, §4

[17] = test system: NCI-H226; test: Cancer cell growth inhibition, NCI-H226; assay type: cell-based, human; details: Homo sapiens; NCI-H226, Lung Cancer, 72 h treatment
Experimental: as §1, §2, §3, §4

[18] = test system: SK-MES-1; test: Cancer cell growth inhibition, SK-MES-1; assay type: cell-based, human; details: Homo sapiens; SK-MES-1, Lung Cancer, 72 h treatment
Experimental: as §1, §2, §3, §4

[19] = test system: MIAPACA-2; test: Cancer cell growth inhibition, MIAPACA-2; assay type: cell-based, human; details: Homo sapiens, MIA PaCa-2; MIAPACA-2, Pancreatic Cancer, 72 h treatment
Experimental: as §1, §2, §3, §4

[20] = test system: Bx-PC-3; test: Cancer cell growth inhibition, Bx-PC-3; assay type: cell-based, human; details: Homo sapiens, BXPC-3; Bx-PC-3, Pancreatic Cancer, 72 h treatment
Experimental: as §1, §2, §3, §4

[21] = test system: PANC-1; test: Cancer cell growth inhibition, PANC-1; assay type: cell-based, human; details: Homo sapiens; PANC-1, Pancreatic Cancer, 72 h treatment
Experimental: as §1, §2, §3, §4

[22] = test system: HepG2; test: Cancer cell growth inhibition, HepG2; assay type: cell-based, human; details: Homo sapiens; HepG2, Liver Cancer, 72 h treatment
Experimental: as §1, §2, §3, §4

[23] = test system: 143b; test: Cancer cell growth inhibition, 143b; assay type: cell-based; details: Homo sapiens, Osteosarcoma, 72 h treatment
Experimental: as §1, §2, §3, §4

[24] = test system: CNE2; test: Cancer cell growth inhibition, CNE2; assay type: cell-based, human; details: Homo sapiens, CNE-2; CNE2, Nasopharyngeal Cancer, 72 h treatment
Experimental: as §1, §2, §3, §4

[25] = test system: BGC823; test: Cancer cell growth inhibition, BGC823; assay type: cell-based, human; details: Homo sapiens, BGC-823; BGC823, Gastric Cancer, 72 h treatment
Experimental: as §1, §2, §3, §4

[26] = target: Human HDAC10 (Homo sapiens (Human), UniProt Q969S8); test: HDAC10 fluorogenic peptide deacetylation assay; assay type: biochemical; details: human HDAC10, 50 μM substrate, 30° C., 2 h; read-out: IC50 (nM) of enzyme activity HDAC10
[27] = test system: MCF-7-218; test: Cancer cell growth inhibition, MCF-7-218; assay type: cell-based; details: Homo sapiens; MCF-7-218, Breast Cancer, 72 h treatment
Experimental: as §1, §2, §3, §4

Sequence of Human HDAC5 (Q9UQL6 other isoform, or with tags, fused parts or gaps): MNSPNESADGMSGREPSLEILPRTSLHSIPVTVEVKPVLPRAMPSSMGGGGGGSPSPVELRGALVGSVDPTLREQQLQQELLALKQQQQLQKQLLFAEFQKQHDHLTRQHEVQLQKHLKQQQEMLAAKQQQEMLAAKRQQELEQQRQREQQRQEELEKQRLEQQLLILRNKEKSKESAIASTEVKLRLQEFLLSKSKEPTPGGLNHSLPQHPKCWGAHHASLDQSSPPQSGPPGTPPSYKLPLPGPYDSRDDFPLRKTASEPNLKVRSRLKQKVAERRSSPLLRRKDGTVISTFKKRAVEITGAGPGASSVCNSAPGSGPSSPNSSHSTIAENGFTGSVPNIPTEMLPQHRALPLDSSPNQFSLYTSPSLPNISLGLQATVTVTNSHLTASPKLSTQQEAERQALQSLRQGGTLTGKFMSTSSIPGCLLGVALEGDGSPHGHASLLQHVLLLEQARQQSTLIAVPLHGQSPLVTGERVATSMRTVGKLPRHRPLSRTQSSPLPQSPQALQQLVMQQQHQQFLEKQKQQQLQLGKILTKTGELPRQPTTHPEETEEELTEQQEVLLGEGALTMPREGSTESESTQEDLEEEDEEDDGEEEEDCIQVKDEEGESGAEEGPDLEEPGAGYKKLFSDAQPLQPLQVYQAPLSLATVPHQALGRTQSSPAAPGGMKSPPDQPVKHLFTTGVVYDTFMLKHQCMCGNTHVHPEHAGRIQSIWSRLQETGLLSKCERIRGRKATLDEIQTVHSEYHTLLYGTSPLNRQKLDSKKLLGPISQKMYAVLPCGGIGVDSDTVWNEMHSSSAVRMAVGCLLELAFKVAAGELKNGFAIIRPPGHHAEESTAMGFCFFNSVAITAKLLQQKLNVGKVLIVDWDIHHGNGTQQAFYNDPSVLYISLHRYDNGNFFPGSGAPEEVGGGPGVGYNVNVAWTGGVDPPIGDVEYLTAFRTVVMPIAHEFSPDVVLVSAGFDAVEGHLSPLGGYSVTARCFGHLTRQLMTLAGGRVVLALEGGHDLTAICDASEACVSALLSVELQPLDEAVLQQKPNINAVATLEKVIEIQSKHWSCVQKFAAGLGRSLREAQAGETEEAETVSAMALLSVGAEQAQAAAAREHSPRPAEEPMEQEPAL
Sequence of Human HDAC9 (Q9UKV0 other isoform, or with tags, fused parts or gaps): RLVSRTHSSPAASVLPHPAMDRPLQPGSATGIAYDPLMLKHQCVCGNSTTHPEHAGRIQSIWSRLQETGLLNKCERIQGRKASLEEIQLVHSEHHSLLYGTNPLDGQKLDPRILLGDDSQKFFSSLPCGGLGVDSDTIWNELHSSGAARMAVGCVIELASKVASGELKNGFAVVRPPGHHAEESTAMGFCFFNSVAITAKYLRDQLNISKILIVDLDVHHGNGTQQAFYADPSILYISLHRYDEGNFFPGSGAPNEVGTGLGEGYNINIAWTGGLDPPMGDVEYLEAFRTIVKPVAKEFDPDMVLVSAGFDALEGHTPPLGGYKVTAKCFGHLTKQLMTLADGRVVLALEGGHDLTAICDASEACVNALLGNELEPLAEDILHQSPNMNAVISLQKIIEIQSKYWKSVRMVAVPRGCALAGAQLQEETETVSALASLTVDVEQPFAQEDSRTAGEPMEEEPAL
Sequence of Human HDAC3/NcoR2 (O15379 whole entry): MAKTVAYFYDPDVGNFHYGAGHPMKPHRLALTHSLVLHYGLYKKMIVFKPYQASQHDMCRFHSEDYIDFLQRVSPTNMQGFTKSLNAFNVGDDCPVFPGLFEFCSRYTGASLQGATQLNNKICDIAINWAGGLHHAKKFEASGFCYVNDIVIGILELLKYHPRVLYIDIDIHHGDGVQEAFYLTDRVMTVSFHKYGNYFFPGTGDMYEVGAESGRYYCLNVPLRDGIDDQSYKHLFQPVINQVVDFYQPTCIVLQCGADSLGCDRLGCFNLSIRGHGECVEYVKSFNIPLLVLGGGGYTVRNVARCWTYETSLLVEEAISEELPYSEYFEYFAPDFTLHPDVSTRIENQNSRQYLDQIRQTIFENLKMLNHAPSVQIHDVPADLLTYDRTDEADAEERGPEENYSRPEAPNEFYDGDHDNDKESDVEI
Sequence of Human HDAC3/NcoR2 (Q9Y618 395-489 partner): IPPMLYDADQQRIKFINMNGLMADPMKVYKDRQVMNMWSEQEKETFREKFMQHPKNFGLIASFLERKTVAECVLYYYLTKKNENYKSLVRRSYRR
Sequence of Human HDAC4 (P56524 627-1084 limits assumed): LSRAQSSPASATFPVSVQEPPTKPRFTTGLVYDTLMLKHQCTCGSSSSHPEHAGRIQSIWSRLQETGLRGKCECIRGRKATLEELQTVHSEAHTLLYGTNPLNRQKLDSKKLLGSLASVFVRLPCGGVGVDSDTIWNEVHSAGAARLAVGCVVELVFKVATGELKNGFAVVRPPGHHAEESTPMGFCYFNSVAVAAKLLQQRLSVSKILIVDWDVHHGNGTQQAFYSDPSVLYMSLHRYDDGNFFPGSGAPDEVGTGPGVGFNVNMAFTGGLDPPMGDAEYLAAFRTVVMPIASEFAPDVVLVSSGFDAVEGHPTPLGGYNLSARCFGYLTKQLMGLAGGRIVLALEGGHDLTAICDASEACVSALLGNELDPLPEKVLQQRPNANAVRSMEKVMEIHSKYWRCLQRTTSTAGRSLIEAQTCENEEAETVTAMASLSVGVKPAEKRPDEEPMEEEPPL
Sequence of Human HDAC11 (Q96DB2 whole entry): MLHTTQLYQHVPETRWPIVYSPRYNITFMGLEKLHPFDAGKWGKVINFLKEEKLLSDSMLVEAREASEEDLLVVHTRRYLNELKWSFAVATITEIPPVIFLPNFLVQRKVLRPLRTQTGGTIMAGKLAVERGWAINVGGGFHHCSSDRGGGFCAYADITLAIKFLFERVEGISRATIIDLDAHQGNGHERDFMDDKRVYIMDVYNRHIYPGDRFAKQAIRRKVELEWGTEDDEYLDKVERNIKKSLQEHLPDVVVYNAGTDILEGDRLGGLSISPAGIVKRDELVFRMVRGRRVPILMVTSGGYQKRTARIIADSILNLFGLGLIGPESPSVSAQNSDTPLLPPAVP
Sequence of Human HDAC8 (Q9BY41 whole entry): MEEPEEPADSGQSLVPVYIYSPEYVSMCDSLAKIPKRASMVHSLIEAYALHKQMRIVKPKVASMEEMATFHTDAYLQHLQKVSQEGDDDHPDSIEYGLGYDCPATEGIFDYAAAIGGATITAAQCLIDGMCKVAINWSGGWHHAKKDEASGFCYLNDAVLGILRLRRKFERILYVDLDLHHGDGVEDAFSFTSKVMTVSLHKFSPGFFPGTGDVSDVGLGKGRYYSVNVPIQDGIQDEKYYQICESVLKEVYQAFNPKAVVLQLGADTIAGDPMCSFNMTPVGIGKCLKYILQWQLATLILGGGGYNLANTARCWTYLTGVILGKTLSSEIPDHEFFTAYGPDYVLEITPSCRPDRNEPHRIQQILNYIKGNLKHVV
Sequence of Human HDAC10 (Q969S8 1-631): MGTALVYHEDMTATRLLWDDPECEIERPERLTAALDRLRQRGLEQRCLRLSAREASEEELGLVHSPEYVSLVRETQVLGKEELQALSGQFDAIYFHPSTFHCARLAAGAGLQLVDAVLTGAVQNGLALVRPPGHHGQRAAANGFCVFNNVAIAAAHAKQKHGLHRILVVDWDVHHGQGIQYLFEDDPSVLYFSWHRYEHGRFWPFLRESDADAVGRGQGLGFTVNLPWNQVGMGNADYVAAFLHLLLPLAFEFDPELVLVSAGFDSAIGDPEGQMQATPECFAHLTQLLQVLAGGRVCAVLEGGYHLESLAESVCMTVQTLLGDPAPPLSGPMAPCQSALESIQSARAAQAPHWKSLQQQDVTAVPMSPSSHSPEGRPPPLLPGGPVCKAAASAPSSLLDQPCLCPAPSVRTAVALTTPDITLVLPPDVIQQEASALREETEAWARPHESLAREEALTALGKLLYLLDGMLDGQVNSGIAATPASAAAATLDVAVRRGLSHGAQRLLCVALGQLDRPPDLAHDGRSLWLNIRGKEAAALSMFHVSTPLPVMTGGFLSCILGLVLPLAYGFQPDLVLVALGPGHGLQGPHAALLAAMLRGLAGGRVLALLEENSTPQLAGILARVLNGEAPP

Row | Structure (SMILES) | IC50 [1] | IC50 [4] | IC50 [7] | IC50 [8] | IC50 [9] | IC50 [10] | IC50 [11] | IC50 [12] | IC50 [13] | IC50 [14] | IC50 [15] | IC50 [16] | IC50 [17] | IC50 [18] | IC50 [19] | IC50 [20] | IC50 [21] | IC50 [22] | IC50 [23] | IC50 [24] | also measured
1 | COc1ccc(-c2cc(-c3ccoc3)c(C(=O)NCc3ccc(C(=O)NO)cc3)[nH]2)cc1 [Example 27, 3-(3-furyl)-N-{4-[(hydroxyamino)carbonyl]benzyl}-5-(4-methoxyphenyl)-1H-pyrrole-2-carboxamide] | 75 nM | 148 nM | 3.9 nM | 119 nM | 376 nM | 1.49 µM | 420 nM | 416 nM | 1.01 µM | 377 nM | 1020 nM | 492 nM | 1.77 µM | 588 nM | 881 nM | 0.775 µM | 0.965 µM | 498 nM | 2.57 µM | 0.59 µM | IC50 [2]: 1080 nM; IC50 [3]: 222 nM; IC50 [5]: 163 nM; IC50 [6]: 341 nM; IC50 [25]: 0.676 µM
2 | O=C(NO)c1ccc(CNC(=O)c2[nH]c(-c3ccc(O)cc3)cc2-c2ccoc2)cc1 [Example 15, 3-(3-furyl)-N-{4-[(hydroxyamino)carbonyl]benzyl}-5-(4-hydroxyphenyl)-1H-pyrrole-2-carboxamide] | 46.1 nM | 74.8 nM | 3.4 nM | 442 nM | 2090 nM | 1.83 µM | 281 nM | 82 nM | 2.29 µM | 334 nM | 2460 nM | 1220 nM | 3.05 µM | 3510 nM | 270 nM | 2.25 µM | 6.45 µM | 2280 nM | 1.93 µM | 16.1 µM | IC50 [2]: 338 nM; IC50 [3]: 60 nM; IC50 [5]: 59 nM; IC50 [26]: 35 nM; IC50 [6]: 72 nM; IC50 [27]: 26.5 µM; IC50 [25]: 5.14 µM
3 | COc1ccc(-c2cc(-c3ccsc3)c(C(=O)NCc3ccc(C(=O)NO)cc3)[nH]2)cc1 [Example 28, N-{4-[(hydroxyamino)carbonyl]benzyl}-5-(4-methoxyphenyl)-3-(3-thienyl)-1H-pyrrole-2-carboxamide] | 273 nM | 174 nM | 22 nM | 12900 nM | 2760 nM | 73.8 µM | 1310 nM | 1460 nM | 25.9 µM | 2000 nM | 3430 nM | 726 nM | 12.6 µM | 1780 nM | 7520 nM | 8.28 µM | 11.5 µM | 1770 nM | 11.1 µM | 5.01 µM | IC50 [2]: 2430 nM; IC50 [3]: 640 nM; IC50 [5]: 478 nM; IC50 [26]: 723 nM; IC50 [6]: 718 nM; IC50 [25]: 7.79 µM
4 | O=C(NO)c1ccc(CNC(=O)c2[nH]c(-c3ccoc3)cc2-c2ccc(O)cc2)cc1 [Example 9, 5-(3-furyl)-N-{4-[(hydroxyamino)carbonyl]benzyl}-3-(4-hydroxyphenyl)-1H-pyrrole-2-carboxamide] | 298 nM | 227 nM | 26 nM | 3630 nM | 4490 nM | 4.25 µM | 3000 nM | 1990 nM | 10.7 µM | 1820 nM | 11400 nM | 9600 nM | 11.9 µM | 7760 nM | 2810 nM | 7.73 µM | 10.7 µM | 5010 nM | 12.9 µM | 9.54 µM | IC50 [27]: 12.8 µM; IC50 [25]: 9.68 µM
